Results taken from patent US11970493B2, “Autotaxin inhibitor compounds” (ILDONG PHARMACEUTICAL CO., LTD., priority 2020, dated 2024).
Structures can show the parent of a compound that is named as a salt.

These compounds were tested against hATX/ENPP2 (Homo sapiens, UniProt Q13822) (assay: hATX/ENPP2 biochemical assay using 16:0-LPC as substrate (Amplex Red/choline oxidase/HRP fluorescence)). Details: hENPP2 2.5 nM, LPC (16:0) substrate.
Method: The enzyme is diluted in 50 mM Tris-HCl pH 8.0, 140 mM NaCl, 5 mM CaCl2, 0.01% Triton X-100 in a total volume of 5 μL. The aqueous solution of enzyme is added to the wells and incubated with different concentrations of the compounds at room temperature for 15 min. The reaction is started by the addition of 5 μL of 80 μM LPC (16:0) and 10 μL of the detection mixture containing 200 μM Amplex Red, 10 U/mL choline oxidase and 4 U/mL HRP. Fluorescence at 590 nm was measured kinetically with excitation at 530 nm. The slope of the curve (from 60 to 70 min of the reaction time) was used to calculate the compounds' IC50 values.
Work on CCc1nc2ccc(-c3cnc(NCC4CNC4)nc3)cn2c1N(C)c1nc(-c2ccc(F)cc2)c(C#N)s1 [38 (formate salt), 2-((6-(2-((azetidin-3-ylmethyl)amino)pyrimidin-5-yl)-2-ethylimidazo[1,2-a]pyridin-3-yl)(methyl)amino)-4-(4-fluorophenyl)thiazole-5-carbonitrile formate] yielded an IC50 greater than 200 nM.
Compound CCc1nc2ccc(-c3cnc(N4CCN(C(=O)NC5CNC5)CC4)nc3)cn2c1N(C)c1nc(-c2ccc(F)cc2)c(C#N)s1 [66 (hydrochloride salt), N-(azetidin-3-yl)-4-(5-(3-((5-cyano-4-(4-fluorophenyl)thiazol-2-yl)(methyl)amino)-2-ethylimidazo[1,2-a]pyridin-6-yl)pyrimidin-2-yl)piperazine-1-carboxamide hydrochloride] has an IC50 of no more than 20 nM.
In the case of CCc1nc2ccc(-c3cnc(N4CC(C(=O)NC5CNC5)C4)nc3)cn2c1N(C)c1nc(-c2ccc(F)cc2)c(C#N)s1 [70 (hydrochloride salt), N-(azetidin-3-yl)-1-(5-(3-((5-cyano-4-(4-fluorophenyl)thiazol-2-yl)(methyl)amino)-2-ethylimidazo[1,2-a]pyridin-6-yl)pyrimidin-2-vl) azetidine-3-carboxamide hydrochloride], the IC50 is reported as 20 to 200 nM.
With CCc1nc2ccc(-c3cnc(N4CC(C(=O)NC5CCNCC5)C4)nc3)cn2c1N(C)c1nc(-c2ccc(F)cc2)c(C#N)s1 [71 (hydrochloride salt), 1-(5-(3-((5-cyano-4-(4-fluorophenyl)thiazol-2-yl)(methyl)amino)-2-ethylimidazo[1,2-a]pyridin-6-yl)pyrimidin-2-yl)-N-(piperidin-4-yl) azetidine-3-carboxamide hydrochloride] the IC50 was 20 to 200 nM.
Work on CCc1nc2ccc(-c3cnc(N4CC(NC5CN(C)C5)C4)nc3)cn2c1N(C)c1nc(-c2ccc(F)cc2)c(C#N)s1 [80 (hydrochloride salt), 2-((2-ethyl-6-(2-(3-((I-methylazetidin-3-yl)amino)azetidin-1-yl)pyrimidin-5-yl)imidazo[1,2-a]pyridin-3-yl)(methyl)amino)-4-(4-fluorophenyl)thiazole-5-carbonitrile hydrochloride] yielded an IC50 of 20 to 200 nM.
CCc1nc2ccc(-c3cnc(N4CC(NC(=O)[C@@H]5C[C@@H](O)CN5C)C4)nc3)cn2c1N(C)c1nc(-c2ccc(F)cc2)c(C#N)s1 [81 (hydrochloride salt), (2S,4R)—N-(1-(5-(3-((5-cyano-4-(4-fluorophenyl)thiazol-2-yl)(methyl)amino)-2-ethylimidazo[1,2-a]pyridin-6-yl)pyrimidin-2-yl)azetidin-3-yl)-4-hydroxy-1-methyl pyrrolidine-2-carboxamide hydrochloride] was tested, and the IC50 was 20 to 200 nM.
With CCc1nc2ccc(-c3cnc(N4CC(N)C4)nc3)cn2c1N(C)c1nc(-c2ccc(F)cc2)c(C#N)s1 [Compound 3, 2-((6-(2-(3-aminoazetidin-1-yl)pyrimidin-5-yl)-2-ethylimidazo[1,2-a]pyridin-3-yl)(methyl)amino)-4-(4-fluorophenyl)thiazole-5-carbonitrile] the IC50 was 20 to 200 nM.
In the case of CCc1nc2ccc(-c3cnc(N4CCNCC4)nc3)cn2c1N(C)c1nc(-c2ccc(F)cc2)c(C#N)s1 [Compound 4, 2-((2-ethyl-6-(2-(piperazin-1-yl)pyrimidin-5-yl)imidazo[1,2-a]pyridin-3-yl)(methyl)amino)-4-(4-fluorophenyl)thiazole-5-carbonitrile], the IC50 is reported as 20 to 200 nM.
Work on CCc1nc2ccc(-c3cnc(N4CCN(C(=O)[C@@H]5C[C@@H](O)CN5)CC4)nc3)cn2c1N(C)c1nc(-c2ccc(F)cc2)c(C#N)s1 [Compound 5, 2-((2-ethyl-6-(2-(4-((2S,4R)-4-hydroxypyrrolidine-2-carbonyl)piperazin-1-yl)pyrimidin-5-yl)imidazo[1,2-a]pyridin-3-yl)(methyl)amino)-4-(4-fluorophenyl)thiazole-5-carbonitrile] yielded an IC50 of no more than 20 nM.
CCc1nc2ccc(-c3cnc(N4CCN(C(=O)[C@H]5C[C@@H](O)CN5)CC4)nc3)cn2c1N(C)c1nc(-c2ccc(F)cc2)c(C#N)s1 [Compound 6, 2-((2-ethyl-6-(2-(4-((2R,4R)-4-hydroxypyrrolidine-2-carbonyl)piperazin-1-yl)pyrimidin-5-yl)imidazo[1,2-a]pyridin-3-yl) (methyl)amino)-4-(4-fluorophenyl)thiazole-5-carbonitrile] was tested, and the IC50 was no more than 20 nM.
CCc1nc2ccc(-c3cnc(N4CCN(C(=O)[C@@H]5C[C@H](O)CN5)CC4)nc3)cn2c1N(C)c1nc(-c2ccc(F)cc2)c(C#N)s1 [Compound 7, 2-((2-ethyl-6-(2-(4-((2S,4S)-4-hydroxypyrrolidine-2-carbonyl)piperazin-1-yl)pyrimidin-5-yl)imidazo[1,2-a]pyridin-3-yl)(methyl)amino)-4-(4-fluorophenyl) thiazole-5-carbonitrile] showed an IC50 of no more than 20 nM.
CCc1nc2ccc(-c3cnc(N4CCN(C(=O)[C@H]5C[C@H](O)CN5)CC4)nc3)cn2c1N(C)c1nc(-c2ccc(F)cc2)c(C#N)s1 [Compound 8, 2-((2-ethyl-6-(2-(4-((2R,4S)-4-hydroxypyrrolidine-2-carbonyl)piperazin-1-yl)pyrimidin-5-yl)imidazo[1,2-a]pyridin-3-yl)(methyl)amino)-4-(4-fluorophenyl)thiazole-5-carbonitrile] gave an IC50 of no more than 20 nM.
In the case of CCc1nc2ccc(-c3cnc(N4CCN(C(=O)C5CNC5)CC4)nc3)cn2c1N(C)c1nc(-c2ccc(F)cc2)c(C#N)s1 [Compound 9, 2-((6-(2-(4-(azetidine-3-carbonyl)piperazin-1-yl)pyrimidin-5-yl)-2-ethylimidazo[1,2-a]pyridin-3-yl)(methyl)amino)-4-(4-fluorophenyl)thiazole-5-carbonitrile], the IC50 is reported as no more than 20 nM.
CCc1nc2ccc(-c3cnc(C(=O)N4CC(O)C4)nc3)cn2c1N(C)c1nc(-c2ccc(F)cc2)c(C#N)s1 [Compound 11, 2-((2-ethyl-6-(2-(3-hydroxyazetidine-1-carbonyl)pyrimidin-5-yl)imidazo[1,2-a]pyridin-3-yl)(methyl)amino)-4-(4-fluorophenyl)thiazole-5-carbonitrile] gave an IC50 of 20 to 200 nM.
CCc1nc2ccc(-c3cnc(C(=O)N4CC(NC5CC5)C4)nc3)cn2c1N(C)c1nc(-c2ccc(F)cc2)c(C#N)s1 [Compound 12, 2-((6-(2-(3-(cyclopropylamino)azetidine-1-carbonyl)pyrimidin-5-yl)-2-ethylimidazo[1,2-a]pyridin-3-yl)(methyl)amino)-4-(4-fluorophenyl)thiazole-5-carbonitrile] was tested, and the IC50 was 20 to 200 nM.
CCc1nc2ccc(-c3cnc(C(=O)N4CC(NC5CCC5)C4)nc3)cn2c1N(C)c1nc(-c2ccc(F)cc2)c(C#N)s1 [Compound 13, 2-((6-(2-(3-(cyclobutylamino)azetidine-1-carbonyl)pyrimidin-5-yl)-2-ethylimidazo[1,2-a]pyridin-3-yl)(methyl)amino)-4-(4-fluorophenyl)thiazole-5-carbonitrile] showed an IC50 greater than 200 nM.
Compound CCc1nc2ccc(-c3cnc(C(=O)N4CC(N5CCC5)C4)nc3)cn2c1N(C)c1nc(-c2ccc(F)cc2)c(C#N)s1 [Compound 14, 2-((6-(2-([1,3′-biazetidine]-1′-carbonyl)pyrimidin-5-yl)-2-ethylimidazo[1,2-a]pyridin-3-yl)(methyl)amino)-4-(4-fluorophenyl) thiazole-5-carbonitrile] has an IC50 of 20 to 200 nM.
CCc1nc2ccc(-c3cnc(C(=O)N4CCC(O)CC4)nc3)cn2c1N(C)c1nc(-c2ccc(F)cc2)c(C#N)s1 [Compound 15, 2-((2-ethyl-6-(2-(4-hydroxypiperidine-1-carbonyl)pyrimidin-5-yl)imidazo[1,2-a]pyridin-3-yl)(methyl)amino)-4-(4-fluorophenyl)thiazole-5-carbonitrile] was tested, and the IC50 was 20 to 200 nM.
Work on CCc1nc2ccc(-c3cnc(C(=O)NC4(C#N)CC4)nc3)cn2c1N(C)c1nc(-c2ccc(F)cc2)c(C#N)s1 [Compound 16, 5-(3-((5-cyano-4-(4-fluorophenyl)thiazol-2-yl)(methyl)amino)-2-ethylimidazo[1,2-a]pyridin-6-yl)-N-(1-cyanocyclopropyl)pyrimidine-2-carboxamide] yielded an IC50 of 20 to 200 nM.
Work on CCc1nc2ccc(-c3cnc(N4CCC(NC5(C#N)CC5)CC4)nc3)cn2c1N(C)c1nc(-c2ccc(F)cc2)c(C#N)s1 [Compound 17, 2-((6-(2-(4-((1-cyanocyclopropyl)amino)piperidin-1-yl)pyrimidin-5-yl)-2-ethylimidazo[1,2-a]pyridin-3-yl)(methyl)amino)-4-(4-fluorophenyl)thiazole-5-carbonitrile] yielded an IC50 of 20 to 200 nM.
CCc1nc2ccc(-c3cnc(N4CCC(NC5(CO)CC5)CC4)nc3)cn2c1N(C)c1nc(-c2ccc(F)cc2)c(C#N)s1 [Compound 18, 2-((2-ethyl-6-(2-(4-((1-(hydroxymethyl)cyclopropyl)amino)piperidin-1-yl)pyrimidin-5-yl)imidazo[1,2-a]pyridin-3-yl) (methyl)amino)-4-(4-fluorophenyl)thiazole-5-carbonitrile] showed an IC50 of no more than 20 nM.
For CCc1nc2ccc(-c3cnc(N4CCC(NC(=O)C5(O)CC5)CC4)nc3)cn2c1N(C)c1nc(-c2ccc(F)cc2)c(C#N)s1 [Compound 19, N-(1-(5-(3-((5-cyano-4-(4-fluorophenyl)thiazol-2-yl)(methyl)amino)-2-ethylimidazo[1,2-a]pyridin-6-yl)pyrimidin-2-yl)piperidin-4-yl)-1-hydroxycyclopropane-1-carboxamide], the IC50 was no more than 20 nM.
For CCc1nc2ccc(-c3cnc(N4CCC(NC(=O)C5(C#N)CC5)CC4)nc3)cn2c1N(C)c1nc(-c2ccc(F)cc2)c(C#N)s1 [Compound 20, 1-cyano-N-(1-(5-(3-((5-cyano-4-(4-fluorophenyl)thiazol-2-yl)(methyl)amino)-2-ethylimidazo[1,2-a]pyridin-6-yl)pyrimidin-2-yl)piperidin-4-yl) cyclopropane-1-carboxamide], the IC50 was 20 to 200 nM.
